Target: T1, human CD73 (Homo sapiens, UniProt P21589)
T1 sequence (P21589 27-549): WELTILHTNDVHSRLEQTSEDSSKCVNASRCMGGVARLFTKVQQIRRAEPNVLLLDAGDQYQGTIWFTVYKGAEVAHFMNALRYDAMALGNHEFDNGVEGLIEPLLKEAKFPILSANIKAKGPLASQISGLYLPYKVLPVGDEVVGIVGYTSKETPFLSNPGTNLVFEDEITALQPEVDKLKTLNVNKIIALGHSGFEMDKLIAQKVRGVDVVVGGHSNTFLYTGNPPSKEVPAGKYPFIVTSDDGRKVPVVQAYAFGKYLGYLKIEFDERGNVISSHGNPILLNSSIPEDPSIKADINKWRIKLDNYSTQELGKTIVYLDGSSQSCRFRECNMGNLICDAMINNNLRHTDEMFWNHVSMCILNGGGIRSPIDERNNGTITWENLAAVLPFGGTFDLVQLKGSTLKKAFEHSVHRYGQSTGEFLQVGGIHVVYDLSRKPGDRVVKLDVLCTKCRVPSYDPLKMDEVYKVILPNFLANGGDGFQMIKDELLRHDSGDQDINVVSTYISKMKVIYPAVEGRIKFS
Test: Inhibition of Ecto-5′-nucleotidase (CD73) activity in CHO-CD73 cells, phosphate release from AMP
Type: cell-based
Details: CHO-K1 cells stably transfected with human CD73; 25 μM AMP; 50 minutes, 37° C.; read-out: Potency: CD73 IC50

| IC50 | SMILES |
| --- | --- |
| 100 to 1000 nM | N#Cc1ccc(Cn2nccc2-c2cnc3c(N)nn(-c4ccc5[nH]c(=O)[nH]c5c4)c3c2)nc1 [Example 315] |
| 100 to 1000 nM | O=c1[nH]c2ccc(-n3nnc4c(F)cc(-c5ccnn5Cc5ccc(Cl)cc5Cl)cc43)cc2[nH]1 [Example 170] |
| 100 to 1000 nM | CCc1cc(C#N)ccc1Cn1nccc1-c1cc(F)c2nnn(-c3ccc4[nH]c(=O)[nH]c4c3)c2c1 [Example 309] |
| > 1000 nM | CC(NC(=O)Cn1nccc1-c1cc(Cl)c2nnn(-c3ccc4cn[nH]c4c3)c2c1)c1ccccc1 (centres unmarked) [Example 185] |
| > 1000 nM | N#Cc1ccc(Cn2nccc2-c2cc(F)c3nnn(-c4ccc5c(CCO)n[nH]c5c4)c3c2)cc1 [Example 349] |
| > 1000 nM | CC(c1ccccn1)n1nccc1-c1cc(Cl)c2nnn(-c3ccc4cn[nH]c4c3)c2c1 (centres unmarked) [Example 99] |
| > 1000 nM | N#Cc1ccc(Cn2nc(C(=O)O)cc2-c2cc(F)c3nnn(-c4ccc5[nH]c(=O)[nH]c5c4)c3c2)cc1 [Example 322] |
| > 1000 nM | O=c1[nH]c2ccc(-n3nnc4c(Cl)cc(-c5ccnn5Cc5cccc[n+]5[O-])cc43)cc2[nH]1 [Example 265] |
| 100 to 1000 nM | N#Cc1ccc(Cn2nccc2-c2cc3c(cc2Cl)nnn3-c2ccc3cn[nH]c3c2)cc1 [Example 151] |
| > 1000 nM | N#Cc1ccc(Cn2ncc(C#N)c2-c2cc(F)c3nnn(-c4ccc5[nH]c(=O)[nH]c5c4)c3c2)cc1 [Example 330] |
| > 1000 nM | O=c1[nH]c2ccc(-n3nnc4c(F)cc(-c5ccnn5Cc5cccnn5)cc43)cc2[nH]1 [Example 206] |
| > 1000 nM | O=c1[nH]c2cc(-n3nnc4c(F)cc(-c5ccnn5Cc5ccc(Cl)cc5Cl)cc43)ccc2o1 [Example 159] |
| 100 to 1000 nM | N#Cc1ccc(Cn2nccc2-c2cc(F)c3nnn(-c4ccc5[nH]c(=O)[nH]c5c4)c3c2)c(S(N)(=O)=O)c1 [Example 310] |
| 100 to 1000 nM | N#Cc1ccc(Cn2nccc2-c2cc(F)c3nnn(-c4ccc5cn[nH]c5c4F)c3c2)cc1 [Example 410] |
| > 1000 nM | O=c1[nH]c2ccc(-n3nnc4c(F)cc(-c5ccnn5CCc5ccc(Cl)cc5)cc43)cc2[nH]1 [Example 205] |
| > 1000 nM | N#Cc1ccc(Cn2nccc2-c2cc(F)c3nnn(-c4ccc5c(CC(=O)O)n[nH]c5c4)c3c2)cc1 [Example 348] |
| > 1000 nM | O=c1[nH]c2ccc(-n3nnc4c(Cl)cc(-c5ccnn5-c5cccc6cccnc56)cc43)cc2[nH]1 [Example 213] |
| 100 to 1000 nM | N#Cc1ccc(Cn2nccc2-c2cc(F)c3nnn(-c4ccc5[nH]c(=O)[nH]c5c4)c3c2)c(-c2ccn[nH]2)c1 [Example 304] |
| 100 to 1000 nM | O=c1[nH]c2ccc(-n3nnc4cnc(-c5ccnn5Cc5ccc(Cl)cc5F)cc43)cc2[nH]1 [Example 193] |
| > 1000 nM | N#Cc1ccc(Cn2nccc2-c2cc(F)c3c(N)nn(-c4ccc5[nH]c(=O)[nH]c5c4)c3c2)cc1 [Example 175] |
| > 1000 nM | N#Cc1ccc(Cn2nccc2-c2cc(F)c3nnn(-c4ccc(O)cc4)c3c2)cc1 [Example 354] |
| 100 to 1000 nM | O=c1[nH]c2ccc(-n3ncc4ncc(-c5ccnn5Cc5ccc(Cl)cc5Cl)cc43)cc2[nH]1 [Example 190] |
| > 1000 nM | N#Cc1ccc(Cn2nccc2-c2cc(F)c3nnn(-c4ccc5nc[nH]c5c4)c3c2)cc1 [Example 120] |
| > 1000 nM | N#Cc1ccc(Cn2nccc2-c2cnc3cnn(-c4ccc5cn[nH]c5c4)c3c2)nc1 [Example 179] |
| > 1000 nM | Fc1cc(-c2ccnn2Cc2ccccc2)cc2c1nnn2-c1cnc2cn[nH]c2c1 [Example 137] |
| 100 to 1000 nM | Cc1cc(C)cc(-n2nccc2-c2cc(F)c3nnn(-c4ccc5[nH]c(=O)[nH]c5c4)c3c2)c1 [Example 226] |
| 100 to 1000 nM | CNC(=O)c1cc(C#N)ccc1Cn1nccc1-c1cc(F)c2nnn(-c3ccc4[nH]c(=O)[nH]c4c3)c2c1 [Example 307] |

| IC50 | SMILES |
| --- | --- |
| < 100 nM | Clc1ccc(Cn2nccc2-c2cc(Cl)c3nnn(-c4ccc5cn[nH]c5c4)c3c2)c(Cl)c1 [Example 59] |
| 100 to 1000 nM | O=c1[nH]c2ccc(-n3nnc4c(F)cc(-c5ccnn5Cc5ccc(Cl)cn5)cc43)cc2[nH]1 [Example 171] |
| > 1000 nM | N#Cc1ccc(Cn2nccc2-c2cc(F)c3nnn(-c4ccc5c(CNC(=O)CN)n[nH]c5c4)c3c2)cc1 [Example 351] |
| > 1000 nM | Clc1cccnc1Cn1nccc1-c1cc(Cl)c2nnn(-c3ccc4cn[nH]c4c3)c2c1 [Example 61] |
| 100 to 1000 nM | C=C(C)c1cc(C#N)ccc1Cn1nccc1-c1cc(F)c2nnn(-c3ccc4[nH]c(=O)[nH]c4c3)c2c1 [Example 264] |
| 100 to 1000 nM | Brc1ccc(Cn2nccc2-c2ccc3nnn(-c4ccc5cn[nH]c5c4)c3c2)cc1 [Example 90] |
| > 1000 nM | Nc1cccc(Cn2nccc2-c2cc(Cl)c3nnn(-c4ccc5[nH]c(=O)[nH]c5c4)c3c2)n1 [Example 287] |
| 100 to 1000 nM | N#Cc1ccc(Cn2nccc2-c2cc(Cl)c3nnn(-c4ccc5[nH]c(=O)[nH]c5c4)c3c2)cc1 [Example 188] |
| 100 to 1000 nM | N#Cc1ccc(Cn2nccc2-c2ccc3nnn(-c4ccc5[nH]c(=O)[nH]c5c4)c3c2)cc1 [Example 157] |
| 100 to 1000 nM | O=c1[nH]c2ccc(-n3nnc4c(F)cc(-c5ccnn5-c5cc(Cl)cc(Cl)c5)cc43)cc2[nH]1 [Example 227] |
| 100 to 1000 nM | Cc1cnn(Cc2ccc(C#N)cc2)c1-c1cc(F)c2nnn(-c3ccc4[nH]c(=O)[nH]c4c3)c2c1 [Example 334] |
| 100 to 1000 nM | Cc1ccc(Cn2nccc2-c2cc3c(cc2F)nnn3-c2ccc3cn[nH]c3c2)[n+]([O-])c1 [Example 397] |
| > 1000 nM | FC1(F)CN(CCn2nccc2-c2ccc3nnn(-c4ccc5cn[nH]c5c4)c3c2)C1 [Example 121] |
| > 1000 nM | N#Cc1cccc(-n2nccc2-c2cc3c(cn2)nnn3-c2ccc3[nH]c(=O)[nH]c3c2)c1 [Example 197] |
| < 100 nM | Fc1cc(-c2ccnn2Cc2ccc(Cl)cc2Cl)cc2c1nnn2-c1ccc2cn[nH]c2c1 [Example 75] |
| < 100 nM | N#Cc1ccc(Cn2nccc2-c2cc(F)c3nnn(-c4cc5[nH]ncc5cc4F)c3c2)cc1 [Example 144] |
| 100 to 1000 nM | N#Cc1ccc(Cn2nccc2-c2cc3c(c[n+]2[O-])nnn3-c2ccc3cn[nH]c3c2)cc1 [Example 363] |
| > 1000 nM | Cc1ccc(F)c(-n2nccc2-c2cc3c(cn2)nnn3-c2ccc3cn[nH]c3c2)c1 [Example 409] |
| > 1000 nM | O=c1[nH]c2ccc(-n3nnc4c(F)cc(-c5ccnn5Cc5ccccn5)cc43)cc2[nH]1 [Example 201] |
| 100 to 1000 nM | COc1nc(-c2ccnn2Cc2ccc(C#N)cc2)cc2c1nnn2-c1ccc2cn[nH]c2c1 [Example 357] |
| > 1000 nM | N#Cc1ccc(Cn2nccc2-c2cc(F)c3nnn(-c4ccc5[nH]c(=O)[nH]c5c4)c3c2)c(CN2CCCC2)c1 [Example 278] |
| 100 to 1000 nM | Cc1cnn(Cc2ccc(Cl)cc2)c1-c1cc(Cl)c2nnn(-c3ccc4cn[nH]c4c3)c2c1 [Example 56] |
| 100 to 1000 nM | O=c1[nH]c2ccc(-n3nnc4cnc(-c5ccnn5Cc5ccc(Cl)cn5)cc43)cc2[nH]1 [Example 165] |
| > 1000 nM | O=c1[nH]c2ccc(-n3nnc4c(F)cc(-c5ccnn5Cc5cccc6c5OC(F)(F)O6)cc43)cc2[nH]1 [Example 229] |
| < 100 nM | Fc1cc(-c2ccnn2Cc2ccc(Cl)cc2)cc2c1nnn2-c1ccc2cn[nH]c2c1 [Example 64] |
| 100 to 1000 nM | Fc1cc(-c2ccnn2Cc2ccccc2Cl)cc2c1nnn2-c1ccc2cn[nH]c2c1 [Example 65] |

Source: patent US11931343B2 (ARCUS BIOSCIENCES, INC., priority 2018, dated 2024)
